# In PubChem BioAssay (NCI):
#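 Growth conditions: 96-well plates. Treatment: test compound, 48 hours, 5 concentrations. Analysis: linear interpolation between bracketing concentrations; unreached endpoints set to highest concentration. GI50 marks 50% less growth. TGI denotes the concentration required for complete inhibition of growth.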
# Experiments:
# Test in all cases: NCI-60 cell line screen, 48 h
# [1] = tested on: 786-0 renal
# [2] = tested on: A498 renal
# [3] = tested on: A549 NSCLC
# [4] = tested on: ACHN renal
# [5] = tested on: BT-549 breast
# [6] = tested on: CAKI-1 renal
# [7] = tested on: CCRF-CEM leukemia
# [8] = tested on: COLO 205 colon
# [9] = tested on: DU-145 prostate
# [10] = tested on: EKVX NSCLC
# [11] = tested on: HCC-2998 colon
# [12] = tested on: HCT-116 colon
# [13] = tested on: HCT-15 colon
# [14] = tested on: HL-60(TB) leukemia
# [15] = tested on: HOP-62 NSCLC
# [16] = tested on: HOP-92 NSCLC
# [17] = tested on: HS 578T breast
# [18] = tested on: HT29 colon
# [19] = tested on: IGROV1 ovarian
# [20] = tested on: K-562 leukemia
# [21] = tested on: KM12 colon
# [22] = tested on: LOX IMVI melanoma
# [23] = tested on: M14 melanoma
# [24] = tested on: MALME-3M melanoma
# [25] = tested on: MCF7 breast
# [26] = tested on: MDA-MB-231 breast
# [27] = tested on: MDA-MB-435
# [28] = tested on: MOLT-4 leukemia
# [29] = tested on: NCI-H226 lung
# [30] = tested on: NCI-H23 lung
# [31] = tested on: NCI-H460 lung
# [32] = tested on: NCI-H522 lung
# [33] = tested on: NCI/ADR-RES ovarian
# [34] = tested on: OVCAR-3 ovarian
# [35] = tested on: OVCAR-4 ovarian
# [36] = tested on: OVCAR-5 ovarian
# [37] = tested on: OVCAR-8 ovarian
# [38] = tested on: PC-3 prostate
# [39] = tested on: RPMI-8226 leukemia
# [40] = tested on: RXF 393 renal
# [41] = tested on: SF-268 CNS
# [42] = tested on: SF-295 CNS
# [43] = tested on: SF-539 CNS
# [44] = tested on: SK-MEL-2 melanoma
# [45] = tested on: SK-MEL-28 melanoma
# [46] = tested on: SK-MEL-5 melanoma
# [47] = tested on: SK-OV-3 ovarian
# [48] = tested on: SN12C renal
# [49] = tested on: SNB-19 CNS
# [50] = tested on: SNB-75 CNS
# [51] = tested on: SR leukemia
# [52] = tested on: SW-620 colon
# [53] = tested on: T-47D breast
# [54] = tested on: TK-10 renal
# [55] = tested on: U251 CNS
# [56] = tested on: UACC-257 melanoma
# [57] = tested on: UACC-62 melanoma
# [58] = tested on: UO-31 renal
# [59] = tested on: MDA-N
structure (smiles),measurement,setting,value
COc1ccc(/C(C)=C(\c2ccc(OCCN3CCCCCC3)cc2)c2ccc(OC(=O)C3CCCCC3)cc2)cc1,GI50,[1],1.11 µM
same,TGI,[1],3.06 µM
same,GI50,[2],1.35 µM
same,TGI,[2],3.45 µM
same,GI50,[3],1.12 µM
same,TGI,[3],4.04 µM
same,GI50,[4],1.73 µM
same,TGI,[4],3.56 µM
same,GI50,[5],1.53 µM
same,TGI,[5],3.36 µM
same,GI50,[6],0.705 µM
same,TGI,[6],2.61 µM
same,GI50,[7],0.75 µM
same,TGI,[7],9.39 µM
same,GI50,[8],0.626 µM
same,TGI,[8],4.06 µM
same,GI50,[9],1.91 µM
same,TGI,[9],4.54 µM
same,GI50,[10],1.39 µM
same,TGI,[10],5.48 µM
same,GI50,[11],1.24 µM
same,TGI,[11],3.36 µM
same,GI50,[12],0.638 µM
same,TGI,[12],2.47 µM
same,GI50,[13],0.378 µM
same,TGI,[13],1.41 µM
same,GI50,[14],0.707 µM
same,TGI,[14],2.85 µM
same,GI50,[15],1.89 µM
same,TGI,[15],4.21 µM
same,GI50,[16],0.813 µM
same,TGI,[16],2.76 µM
same,GI50,[17],0.959 µM
same,TGI,[17],3.74 µM
same,GI50,[18],0.46 µM
same,TGI,[18],2.14 µM
same,GI50,[19],1.21 µM
same,TGI,[19],3.88 µM
same,GI50,[20],0.356 µM
same,TGI,[20],6.14 µM
same,GI50,[21],0.854 µM
same,TGI,[21],3.27 µM
same,GI50,[22],0.319 µM
same,TGI,[22],0.788 µM
same,GI50,[23],0.416 µM
same,TGI,[23],1.3 µM
same,GI50,[24],0.517 µM
same,TGI,[24],2.14 µM
same,GI50,[25],0.015 µM
same,TGI,[25],2.88 µM
same,GI50,[26],1.05 µM
same,TGI,[26],3 µM
same,GI50,[27],1.57 µM
same,TGI,[27],3.38 µM
same,GI50,[28],0.497 µM
same,TGI,[28],2.54 µM
same,GI50,[29],2.02 µM
same,TGI,[29],4.77 µM
same,GI50,[30],1.29 µM
same,TGI,[30],4.32 µM
same,GI50,[31],0.592 µM
same,TGI,[31],2.1 µM
same,GI50,[32],2.12 µM
same,TGI,[32],5.36 µM
same,GI50,[33],1.61 µM
same,TGI,[33],4.78 µM
same,GI50,[34],1.16 µM
same,TGI,[34],3.13 µM
same,GI50,[35],0.785 µM
same,TGI,[35],3.35 µM
same,GI50,[36],1.41 µM
same,TGI,[36],3.44 µM
same,GI50,[37],2.04 µM
same,TGI,[37],5.9 µM
same,GI50,[38],0.541 µM
same,TGI,[38],2.38 µM
same,GI50,[39],0.55 µM
same,TGI,[39],2.23 µM
same,GI50,[40],0.704 µM
same,TGI,[40],2.6 µM
same,GI50,[41],1.16 µM
same,TGI,[41],4.33 µM
same,GI50,[42],0.484 µM
same,TGI,[42],1.8 µM
same,GI50,[43],0.833 µM
same,TGI,[43],2.74 µM
same,GI50,[44],1.87 µM
same,TGI,[44],4.19 µM
same,GI50,[45],1.25 µM
same,TGI,[45],3.14 µM
same,GI50,[46],1.08 µM
same,TGI,[46],3 µM
same,GI50,[47],1.7 µM
same,TGI,[47],3.96 µM
same,GI50,[48],1.11 µM
same,TGI,[48],3.28 µM
same,GI50,[49],2.45 µM
same,TGI,[49],10.5 µM
same,GI50,[50],1.6 µM
same,TGI,[50],3.88 µM
same,GI50,[51],0.291 µM
same,TGI,[51],1.07 µM
same,GI50,[52],0.948 µM
same,TGI,[52],3.15 µM
same,GI50,[53],0.405 µM
same,TGI,[53],3.33 µM
same,GI50,[54],1.84 µM
same,TGI,[54],4.25 µM
same,GI50,[55],1.01 µM
same,TGI,[55],3.62 µM
same,GI50,[56],0.575 µM
same,TGI,[56],2.07 µM
same,GI50,[57],0.892 µM
same,TGI,[57],2.85 µM
same,GI50,[58],0.453 µM
same,TGI,[58],2.22 µM
Cc1ccc([N+](=O)[O-])cc1N=NC(=O)NNc1cc([N+](=O)[O-])ccc1C,TGI,[2],84.4 µM
same,TGI,[5],52.1 µM
same,TGI,[6],66.8 µM
same,TGI,[7],40.2 µM
same,TGI,[8],> 100 µM
same,TGI,[9],> 100 µM
same,TGI,[11],58 µM
same,TGI,[12],36.8 µM
same,TGI,[13],74.3 µM
same,TGI,[14],> 100 µM
same,TGI,[15],> 100 µM
same,TGI,[16],> 100 µM
same,TGI,[17],55.6 µM
same,TGI,[18],45 µM
same,TGI,[20],> 100 µM
same,TGI,[21],49.3 µM
same,TGI,[23],53.5 µM
same,TGI,[24],> 100 µM
same,TGI,[25],67.3 µM
same,TGI,[26],47.8 µM
same,TGI,[27],53 µM
same,TGI,[59],82.8 µM
same,TGI,[28],41 µM
same,TGI,[30],> 100 µM
same,TGI,[32],29.7 µM
same,TGI,[33],> 100 µM
same,TGI,[34],39.9 µM
same,TGI,[36],> 100 µM
same,TGI,[37],70 µM
same,TGI,[38],> 100 µM
same,TGI,[39],> 100 µM
same,TGI,[40],66.6 µM
same,TGI,[42],40.9 µM
same,TGI,[44],> 100 µM
same,TGI,[45],87.5 µM
same,TGI,[46],34.9 µM
same,TGI,[47],36 µM
same,TGI,[49],> 100 µM
same,TGI,[50],66.2 µM
same,TGI,[51],> 100 µM
same,TGI,[53],> 100 µM
same,TGI,[55],97.6 µM
same,TGI,[57],33.2 µM
same,TGI,[58],78.9 µM
COC(=O)c1cc2c(cc1CC1Cc3cc4c(cc3C1)CCC4)CCC2,TGI,[1],> 100 µM
same,TGI,[2],> 100 µM
same,TGI,[3],> 100 µM
same,TGI,[4],> 100 µM
same,TGI,[6],> 100 µM
same,TGI,[7],45.3 µM
same,TGI,[8],> 100 µM
same,TGI,[9],> 100 µM
same,TGI,[10],> 100 µM
same,TGI,[11],70 µM
same,TGI,[12],> 100 µM
same,TGI,[13],> 100 µM
same,TGI,[14],32.7 µM
same,TGI,[15],> 100 µM
same,TGI,[16],98.9 µM
same,TGI,[17],> 100 µM
same,TGI,[18],> 100 µM
same,TGI,[19],> 100 µM
same,TGI,[20],> 100 µM
same,TGI,[21],> 100 µM
same,TGI,[22],55 µM
same,TGI,[23],> 100 µM
same,TGI,[24],> 100 µM
same,TGI,[25],91.2 µM
same,TGI,[26],> 100 µM
same,TGI,[27],> 100 µM
same,TGI,[59],> 100 µM
same,TGI,[28],36.9 µM
same,TGI,[29],> 100 µM
same,TGI,[30],> 100 µM
same,TGI,[31],> 100 µM
same,TGI,[32],80 µM
same,TGI,[33],> 100 µM
same,TGI,[34],> 100 µM
same,TGI,[35],> 100 µM
same,TGI,[36],> 100 µM
same,TGI,[37],> 100 µM
same,TGI,[38],> 100 µM
same,TGI,[39],61.4 µM
same,TGI,[40],> 100 µM
same,TGI,[41],> 100 µM
same,TGI,[42],> 100 µM
same,TGI,[43],> 100 µM
same,TGI,[44],54 µM
same,TGI,[45],80.4 µM
same,TGI,[46],> 100 µM
same,TGI,[47],> 100 µM
same,TGI,[48],> 100 µM
same,TGI,[49],> 100 µM
same,TGI,[50],> 100 µM
same,TGI,[51],47.2 µM
same,TGI,[52],> 100 µM
same,TGI,[53],> 100 µM
same,TGI,[54],> 100 µM
same,TGI,[55],> 100 µM
same,TGI,[56],80.9 µM
same,TGI,[58],> 100 µM
CC[n+]1[b-](C(C)(C)C)n(/N=C/C(C)(C)C)[b-](C(C)(C)C)[n+]1CC,TGI,[1],> 100 µM
same,TGI,[3],> 100 µM
same,TGI,[4],> 100 µM
same,TGI,[5],> 100 µM
same,TGI,[6],> 100 µM
same,TGI,[7],> 100 µM
same,TGI,[8],> 100 µM
same,TGI,[10],> 100 µM
same,TGI,[11],> 100 µM
same,TGI,[12],> 100 µM
same,TGI,[13],> 100 µM
same,TGI,[15],> 100 µM
same,TGI,[17],> 100 µM
same,TGI,[18],> 100 µM
same,TGI,[19],> 100 µM
same,TGI,[20],> 100 µM
same,TGI,[21],> 100 µM
same,TGI,[22],> 100 µM
same,TGI,[23],> 100 µM
same,TGI,[24],> 100 µM
same,TGI,[25],> 100 µM
same,TGI,[26],> 100 µM
same,TGI,[27],> 100 µM
same,TGI,[59],> 100 µM
same,TGI,[28],> 100 µM
same,TGI,[29],> 100 µM
same,TGI,[30],> 100 µM
same,TGI,[31],> 100 µM
same,TGI,[32],> 100 µM
same,TGI,[33],> 100 µM
same,TGI,[34],> 100 µM
same,TGI,[35],> 100 µM
same,TGI,[36],> 100 µM
same,TGI,[37],> 100 µM
same,TGI,[38],> 100 µM
same,TGI,[40],> 100 µM
same,TGI,[41],> 100 µM
same,TGI,[42],> 100 µM
same,TGI,[43],> 100 µM
same,TGI,[44],> 100 µM
same,TGI,[45],> 100 µM
same,TGI,[46],> 100 µM
same,TGI,[48],> 100 µM
same,TGI,[49],> 100 µM
same,TGI,[50],> 100 µM
same,TGI,[51],> 100 µM
same,TGI,[52],> 100 µM
same,TGI,[53],> 100 µM
same,TGI,[54],> 100 µM
same,TGI,[55],> 100 µM
same,TGI,[56],> 100 µM
same,TGI,[57],> 100 µM
same,TGI,[58],> 100 µM
